Holding throughout (assay type): biochemical
One assay deals with T1, Aurora-A (Homo sapiens, UniProt O14965).
T1 construct: purchased Upstate; host or cells: Sf21 insect cells
T1 sequence (O14965 1-403): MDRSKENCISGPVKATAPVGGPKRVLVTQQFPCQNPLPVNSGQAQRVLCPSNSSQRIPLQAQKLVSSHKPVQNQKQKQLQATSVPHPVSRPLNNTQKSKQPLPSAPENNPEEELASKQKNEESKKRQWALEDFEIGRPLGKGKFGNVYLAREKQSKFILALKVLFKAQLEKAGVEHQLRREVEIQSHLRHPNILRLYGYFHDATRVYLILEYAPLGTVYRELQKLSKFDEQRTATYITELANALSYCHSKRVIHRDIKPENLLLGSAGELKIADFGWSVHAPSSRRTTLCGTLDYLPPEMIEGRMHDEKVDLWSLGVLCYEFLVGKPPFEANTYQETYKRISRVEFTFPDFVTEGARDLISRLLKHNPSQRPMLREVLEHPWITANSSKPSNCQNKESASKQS
Kind of assay: Aurora-A kinase assay. The conditions noted are these: 8 μM ATP, 22° C., 90 min. Here is the method: Recombinant Aurora-A protein, expressed in Sf21 insect cells, was purchased from Upstate. The kinase substrate used was the biotinylated peptide having the amino acid sequence biotin-LNYNRRLSLGPMF, which was purchased from Jerini A G in Berlin.
Aurora-A [15 nM in the test mixture, test volume 5 μl] was incubated in the presence of various concentrations of test substances (0 μM and 10 measurement points within the range 0.001-20 μM in duplicate) in assay buffer [25 mM HEPES pH 7.4, 3 mM MnCl2, 5 mM MnCl2, 0.1 mM Na ortho-vanadate, 2.0 mM dithiothreitol, 0.05% bovine serum albumin (BSA), 0.01% Triton X-100, 8 μM ATP, 4 nCi/μl gama-P33-ATP, 5.0 μM substrate peptide biotin-LNYNRRLSLGPMF, 1.0% dimethyl sulphoxide] at 22° C. for 90 min. The reaction was stopped by adding 12.5 μl of an EDTA/detection solution [16 mM EDTA, 40 mM ATP, 0.08% Triton X-100, 4 mg/ml PVT streptavidin SPA beads (from Amersham)]. After incubation for 10 minutes, the SPA beads were pelleted by centrifugation at 1000×G for 10 minutes. Measurement took place in a PerkinElmer Topcount scintillation counter.
The measured data were normalized to 0% inhibition (enzyme reaction without inhibitor) and 100% inhibition (enzyme reaction in the presence of 0.1 μM staurosporine (from Sigma)). The IC50 values were determined by means of a 4-parameter fit using the company's own software.

In the next assay the target is T2, CDK1/CycB (Homo sapiens, UniProt P06493).
T2 construct: GST; purchased ProQinase GmbH, Freiburg; host or cells: baculovirus-infected Sf9 insect cells
Kind of assay: CDK1/CycB kinase assay. Conditions: 0.5 μM ATP, 22° C., 10 min. Here is the method: Recombinant CDK1- and CycB-GST fusion proteins, purified from baculovirus-infected insect cells (Sf9), were purchased from ProQinase GmbH, Freiburg. The histone IIIS used as kinase substrate can be purchased from Sigma. CDK1/CycB (200 ng/measurement point) was incubated in the presence of various concentrations of test substances (0 μM, and within the range 0.01-100 μM) in assay buffer [50 mM Tris/HCl pH 8.0, 10 mM MgCl2, 0.1 mM Na ortho-vanadate, 1.0 mM dithiothreitol, 0.5 μM ATP, 10 μg/measurement point histone IIIS, 0.2 μCi/measurement point 33P-gamma ATP, 0.05% NP40, 1.25% dimethyl sulphoxide] at 22° C. for 10 min. The reaction was stopped by adding EDTA solution (250 mM, pH 8.0, 15 μl/measurement point).
15 μl of each reaction mixture were loaded onto P30 filter strips (from Wallac), and non-incorporated 33P-ATP was removed by washing the filter strips three times in 0.5% strength phosphoric acid for 10 min each time. After the filter strips had been dried at 70° C. for 1 hour, the filter strips were covered with scintillator strips (MeltiLex™ A, from Wallac) and baked at 90° C. for 1 hour. The amount of incorporated 33P (substrate phosphorylation) was determined by scintillation measurement in a gamma radiation counter (Wallac).

A further assay has as its target T3, KDR (Homo sapiens, UniProt P35968).
T3 construct: made in house; host or cells: SF9 insect cells
Kind of assay: KDR kinase assay. The conditions noted are these: 1 μM ATP, 22° C., 20 min. Here is the method: Recombinant GST-KDR protein was expressed in SF9 insect cells and then purified. The kinase substrate used was the biotinylated peptide biotin-polyGluAlaTyr from Cisbio International.
GST-KDR [test volume 15 μl] was incubated in the presence of various concentrations of test substances (0 μM, and 10 measurement points within the range 0.001-20 μM in duplicate) in assay buffer [50 mM HEPES pH 7.0, 25 mM MgCl2, 5 mM MgCl2, 0.5 mM Na ortho-vanadate, 1 mM dithiothreitol, 10% glycerol, 1 μM ATP, 23.5 mg/L substrate peptide biotin-polyGluAlaTyr, 1% dimethyl sulphoxide, 1× protease inhibitor mix (from Roche)] at 22° C. for 20 min. The reaction was stopped by adding 5 μl of an EDTA/detection solution [50 mM HEPES pH 7.0, 250 mM EDTA, 0.5% BSA, 22 mg/L streptavidin-XL (from CisBio), 1 mg/L PT66-Eu (from PerkinElmer)]. The fluorescence emission at 620 nm and 665 nm after excitation with light of the wavelength 350 nm was measured in a Rubystar HTRF instrument from BMG Labsystems 60 minutes after addition of the EDTA/detection solution.
The measured data (ratio of emission 665 divided by emission 620 multiplied by 10 000) were normalized to 0% inhibition (enzyme reaction without inhibitor) and 100% inhibition (all assay components apart from enzyme). The IC50 values were determined by means of a 4-parameter fit using the company's own software.

Bounds are passed on as bounds.

For orientation: IC50 means the concentration needed to halve the response being measured. Low values mean greater potency, high ones weaker potency.

T3 sequence (P35968 20-1356, species assumed): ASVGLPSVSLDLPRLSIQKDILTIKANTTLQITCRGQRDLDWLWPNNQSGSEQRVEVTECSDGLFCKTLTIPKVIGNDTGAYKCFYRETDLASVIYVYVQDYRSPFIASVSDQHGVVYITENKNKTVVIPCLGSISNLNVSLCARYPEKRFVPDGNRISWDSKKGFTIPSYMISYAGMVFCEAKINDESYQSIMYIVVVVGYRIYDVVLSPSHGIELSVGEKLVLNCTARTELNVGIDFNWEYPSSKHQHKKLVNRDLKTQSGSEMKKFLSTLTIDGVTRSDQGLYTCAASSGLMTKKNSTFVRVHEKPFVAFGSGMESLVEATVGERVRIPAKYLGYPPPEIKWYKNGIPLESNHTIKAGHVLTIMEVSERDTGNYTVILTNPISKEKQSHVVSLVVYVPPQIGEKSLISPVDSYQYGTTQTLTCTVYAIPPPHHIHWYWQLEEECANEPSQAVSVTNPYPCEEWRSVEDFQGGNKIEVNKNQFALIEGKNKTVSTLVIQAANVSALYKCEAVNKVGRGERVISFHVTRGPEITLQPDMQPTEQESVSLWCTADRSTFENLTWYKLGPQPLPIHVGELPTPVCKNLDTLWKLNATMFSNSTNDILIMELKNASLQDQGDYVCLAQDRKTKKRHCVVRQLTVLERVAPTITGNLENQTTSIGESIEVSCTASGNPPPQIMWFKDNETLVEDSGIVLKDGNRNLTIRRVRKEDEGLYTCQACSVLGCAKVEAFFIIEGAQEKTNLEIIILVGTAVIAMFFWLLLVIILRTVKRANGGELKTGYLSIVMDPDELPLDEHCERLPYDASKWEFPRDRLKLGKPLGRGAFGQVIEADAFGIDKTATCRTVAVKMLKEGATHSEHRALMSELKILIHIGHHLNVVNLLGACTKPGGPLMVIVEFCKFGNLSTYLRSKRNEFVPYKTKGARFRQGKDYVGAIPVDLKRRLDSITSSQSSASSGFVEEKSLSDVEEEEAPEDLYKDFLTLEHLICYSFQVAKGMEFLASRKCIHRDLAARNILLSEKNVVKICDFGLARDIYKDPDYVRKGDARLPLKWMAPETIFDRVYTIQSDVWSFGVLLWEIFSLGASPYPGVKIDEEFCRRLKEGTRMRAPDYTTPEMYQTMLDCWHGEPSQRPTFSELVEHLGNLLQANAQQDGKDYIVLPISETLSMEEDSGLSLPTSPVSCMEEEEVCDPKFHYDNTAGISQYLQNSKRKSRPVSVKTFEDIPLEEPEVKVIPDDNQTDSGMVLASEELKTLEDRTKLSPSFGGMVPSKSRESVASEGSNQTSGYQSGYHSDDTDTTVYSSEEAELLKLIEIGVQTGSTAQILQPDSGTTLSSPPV
T2 sequence (P06493 whole entry): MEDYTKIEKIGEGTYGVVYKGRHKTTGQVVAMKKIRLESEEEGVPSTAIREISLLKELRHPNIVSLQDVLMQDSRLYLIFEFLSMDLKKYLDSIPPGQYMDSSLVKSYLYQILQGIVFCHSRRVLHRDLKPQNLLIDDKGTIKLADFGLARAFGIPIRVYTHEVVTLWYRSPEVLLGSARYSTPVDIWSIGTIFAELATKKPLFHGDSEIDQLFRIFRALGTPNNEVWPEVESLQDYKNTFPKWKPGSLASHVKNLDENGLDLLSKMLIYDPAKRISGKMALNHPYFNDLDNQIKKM
T2 sequence (P14635 whole entry partner): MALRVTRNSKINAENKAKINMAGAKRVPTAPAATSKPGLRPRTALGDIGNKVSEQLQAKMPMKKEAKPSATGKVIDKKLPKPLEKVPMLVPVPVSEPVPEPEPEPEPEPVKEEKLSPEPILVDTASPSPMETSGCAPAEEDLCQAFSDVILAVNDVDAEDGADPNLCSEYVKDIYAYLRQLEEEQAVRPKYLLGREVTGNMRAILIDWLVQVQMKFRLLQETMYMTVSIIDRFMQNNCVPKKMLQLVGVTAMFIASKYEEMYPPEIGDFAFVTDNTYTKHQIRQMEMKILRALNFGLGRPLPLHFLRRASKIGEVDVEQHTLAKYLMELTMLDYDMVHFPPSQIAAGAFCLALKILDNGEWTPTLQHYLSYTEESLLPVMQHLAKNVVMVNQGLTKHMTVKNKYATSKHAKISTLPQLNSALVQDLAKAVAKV

In the case of `CCOC(=O)N=S(C)(=O)c1ccc2cc1NCCCCNc1nc(ncc1Br)N2` (racemic) [Example 1, (RS)—S-[1^5-Bromo-2,4,9-triaza-1(2,4)-pyrimidina-3(1,3)-benzenacyclononaphan-3^4-yl]-N-(ethoxycarbonyl)-S-methylsulphoximide], the half-maximal inhibitory concentration (IC50) against Aurora-A amounted to 27 nM; on CDK1/CycB it was 173 nM; against KDR it was 61 nM.

With `CCNC(=O)N=S(C)(=O)c1ccc2cc1NCCCCNc1nc(ncc1Br)N2` (racemic) [Example 6, (RS)—S-[1^5-Bromo-2,4,9-triaza-1(2,4)-pyrimidina-3(1,3)-benzenacyclononaphan-3^4-yl]-N-(ethylcarbamoyl)-S-methylsulphoximide], the values for the half-maximal inhibitory concentration (IC50) on Aurora-A, against CDK1/CycB and against KDR were 21 nM, 70 nM and 22 nM, respectively.

On to `C[Si](C)(C)CCS(=O)(=O)N=S(C)(=O)c1ccc2cc1OCCCCNc1nc(ncc1Br)N2` (racemic) [Example 9, (RS)—S-[1^5-Bromo-4-oxa-2,9-diaza-1(2,4)-pyrimidina-3(1,3)-benzenacyclononaphan-3^4-yl]-S-methyl-N-[2-(trimethylsilyl)ethylsulphonyl]sulphoximide], for which the IC50 against Aurora-A was 652 nM; against CDK1/CycB, over 1000 nM; at KDR, 60 nM.

Regarding `CCCS(=O)(=O)N=S(C)(=O)c1ccc2cc1NCCCCNc1nc(ncc1Br)N2` (racemic) [Example 7, (RS)—S-[1^5-Bromo-2,4,9-triaza-1(2,4)-pyrimidina-3(1,3)-benzenacyclononaphan-3^4-yl]-S-methyl-N-(propylsulphonyl)sulphoximide], the concentration for half-maximal inhibition (IC50) came out at 44 nM on Aurora-A, 452 nM against CDK1/CycB and 7 nM against KDR.

In the case of `CCCOC(=O)N=S(C)(=O)c1ccc2cc1OCCCCNc1nc(ncc1Br)N2` (racemic) [Example 8, (RS)—S-[1^5-Bromo-4-oxa-2,9-diaza-1(2,4)-pyrimidina-3(1,3)-benzenacyclononaphan-3^4-yl]-S-methyl-N-(propoxycarbonyl)sulphoximide], the IC50 was determined as 438 nM at CDK1/CycB and 136 nM against KDR.

As for `CCOC(=O)N=S(C)(=O)c1ccc2cc1NCCCCNc1nc(ncc1Br)N2` (single isomer, unassigned) [Example 2], the IC50 on Aurora-A is 26 nM; at CDK1/CycB, 104 nM; against KDR it was 198 nM.

On to `C[Si](C)(C)CCS(=O)(=O)N=S(C)(=O)c1ccc2cc1NCCCCNc1nc(ncc1Br)N2` (racemic) [Example 5, (RS)—S-[1^5-Bromo-2,4,9-triaza-1(2,4)-pyrimidina-3(1,3)-benzenacyclononaphan-3^4-yl]-S-methyl-N-[2-(trimethylsilyl)ethylsulphonyl]sulphoximide], for which the figures for the IC50 on Aurora-A, on CDK1/CycB and against KDR were 844 nM, over 1000 nM and 22 nM, respectively.

Take `CCOC(=O)N=S(C)(=O)c1ccc2cc1NCCCCNc1nc(ncc1Br)N2` (single isomer, unassigned) [Example 3]: the IC50 against Aurora-A is 77 nM; against CDK1/CycB it was 210 nM; against KDR, 289 nM.

Consider `CCOC(=O)N=S(C)(=O)c1ccc2cc1NCCCCNc1nc(ncc1I)N2` (racemic) [Example 4, (RS)—N-(Ethoxycarbonyl)-S-[1^5-iodo-2,4,9-triaza-1(2,4)-pyrimidina-3(1,3)-benzenacyclononaphan-3^4-yl]-S-methylsulphoximide], for which the half-inhibitory concentration (IC50) at Aurora-A came out at 31 nM; against CDK1/CycB it was 118 nM; against KDR, 9 nM.

(Values after US20070191393A1, “Macrocyclic anilinopyrimidines with substituted sulphoximine as selective inhibitors of cell cycle kinases” (priority 2006, published 2007).)
